Source: patent US20130012709A1, “NOVEL INHIBITORS OF STEAROYL-CoA-DESATURASE-1 AND THEIR USES” (CENTRE NATIONAL DE LA RECHERCHE SCIENTIFIQUE, priority 2009, published 2013)

Assays:
C4-2 tumors = experiment: Survival analysis of mice with pre-established C4-2 tumors; assay type: in vivo; conditions: for animals surviving at 14 days of treatment: control group 37.5%
Protocol: (§1) Male athymic nude Mice (Foxn1 nu/nu) (Harlan, Grannat, France) were used at the age of 7 weeks (weight 25-30 g). All procedures were performed in compliance with the European Convention for the Protection of Vertebrate Animals Used for Experimentation (animal house agreement # B-34-172-27, authorization for animal experimentation #34.324). Experiments were done at least twice for each tested condition. Animals were sacrificed before they became compromised. Xenografts were established by subcutaneously injecting 2×10^6 LNCaP cells, 2×10^6 C4-2 cells or 5×10^5 MEFs SV40 in 100 μl of a Matrigel solution. For curative experiments, tumors were allowed to growth until they were measurable with a caliper. In each group, the mice were randomized and given SCD-1 inhibitor at 80 mg/kg in 100 μl of a labrafil-DMA-tween^80 solution (89:10:1) (treated group) or vehicle alone (control group), by daily intra-peritoneal (i.p.) injection 5 days of week. For preventive experiments, the mice were treated daily for 7 days before the day of xenograft. Tumor volume measurements were taken twice to three times a week and calculated according to the formula: length×width×height×0.5236. Data are expressed as the mean tumor volume or as fold of the start point tumor volume. For survival analysis, animals bearing pre-established C4-2 tumors were treated with BZ36 at 80 mg/kg or 160 mg/kg or with vehicle by daily i.p. injection 5 days of week. All mice were monitored for survival until tumor volume had reached 2000 mm^3 or until death. Analysis of survival was conducted by a log-rank test based on the Kaplan-Meier method. At euthanasia, tumors were excised and fixed in 4% formalin for immunohistological analyses.

ras SV40 MEFs tumors = experiment: ras SV40 MEFs xenograft, curative and preventive; assay type: in vivo, mice
Protocol: as §1
Immunohistochemical analysis of SCD-1 expression was performed using high-density Tissue Microarray (TMA) slide (Accumax array) with 39 prostate adenocarcinoma spots from different patients (Gleason scores from 5 to 9) with corresponding normal tissues. […] Sections were mounted in mowiol and analysed rapidly.

COc1ccc(Br)c(C(=O)N2CCN(c3ccc(C(=O)NCCCc4ccccc4)cn3)CC2)c1 [BZ36]
animal survival in comparison to vehicle control (C4-2 tumors; 80 mg/kg or 160 mg/kg, p=0.038): significant and dose-dependant prolongation
animals surviving at 14 days of treatment (C4-2 tumors; 80 mg/kg): 75%
median survival (C4-2 tumors; 80 mg/kg, control group 14 days): 21 days
animals surviving at 28 days of treatment (C4-2 tumors; 160 mg/kg, control group 12.5%): 75%
animals surviving at 14 days of treatment (C4-2 tumors; 160 mg/kg): 100%
ras SV40 MEFs tumors growth (ras SV40 MEFs tumors; curative, from day 2, maintained along 12 days, vs vehicle): significantly prevented
mice with tumors five days after cells were grafted (ras SV40 MEFs tumors; pre-treatment one week prior to graft, almost all vehicle treated mice developed tumors): 50%
decrease of proliferative tumor cells (PCNA immunostaining) (ras SV40 MEFs tumors; ras SV40 MEFs xenografts, vs vehicle-treated mice): 61%
